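In this assay, cells in 96-well plates receive the compound at five concentrations for 48 hours. Endpoints are linearly interpolated between the surrounding concentrations. TGI: total growth inhibition.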
Legend:
Test in all cases: NCI tumour cell line growth inhibition, 48 h
CCRF-CEM leukemia = test system: CCRF-CEM leukemia
DU-145 prostate = test system: DU-145 prostate
HOP-92 NSCLC = test system: HOP-92 NSCLC
IGROV1 ovarian = test system: IGROV1 ovarian
K-562 leukemia = test system: K-562 leukemia
KM12 colon = test system: KM12 colon
M14 melanoma = test system: M14 melanoma
MDA-N = test system: MDA-N
NCI-H226 lung = test system: NCI-H226 lung
PC-3 prostate = test system: PC-3 prostate
SF-295 CNS = test system: SF-295 CNS

| SMILES | TGI (CCRF-CEM leukemia) [µM] | TGI (DU-145 prostate) [µM] | TGI (HOP-92 NSCLC) [µM] | TGI (IGROV1 ovarian) [µM] | TGI (K-562 leukemia) [µM] | TGI (KM12 colon) [µM] | TGI (M14 melanoma) [µM] | TGI (MDA-N) [µM] | TGI (NCI-H226 lung) [µM] | TGI (PC-3 prostate) [µM] | TGI (SF-295 CNS) [µM] |
| --- | --- | --- | --- | --- | --- | --- | --- | --- | --- | --- | --- |
| Brc1ccc(-c2cn3ccncc3n2)cc1 | > 100 | > 100 | > 100 | > 100 | > 100 | > 100 | > 100 | > 100 | > 100 | > 100 | > 100 |
| C/C(=C/CC[C@]1(CO)CC[C@]2(CO)[C@H](CC[C@@H]3[C@@]4(C)CC[C@H](OC5OCC(O)C(O)C5OC5OC(CO)C(O)C(O)C5O)C(C)(C)[C@@H]4CC[C@]32C)[C@H]1O)CO (stereo not given in full) | > 100 | > 100 | > 100 | > 100 | > 100 | > 100 | > 100 | > 100 | > 100 | > 100 | > 100 |
| O=C1C[C@@H](c2ccccc2)O[C@@H](c2ccccc2)C1 | > 100 | > 100 | > 100 | > 100 | > 100 | > 100 | > 100 | > 100 | > 100 | > 100 | > 100 |
| Cc1ccc(/C(O)=C/C(=O)C(=O)NN=C(c2ccccc2)c2ccccc2)cc1 | > 100 | > 100 | > 100 | > 100 | > 100 | > 100 | > 100 | > 100 | > 100 | > 100 | > 100 |
| CC[C@@H](/C=C\CCC(=O)C[C@H](O)CCC=C(C)C)O[Si](C(C)C)(C(C)C)C(C)C | > 100 | > 100 | > 100 | > 100 | > 100 | > 100 | > 100 | > 100 | > 100 | > 100 | > 100 |
| CC1=NN(C(=O)CSc2nc3ccc(I)cc3c(=O)n2Cc2ccccc2)C(=O)C1 | > 100 | > 100 | 70.7 | 65.4 | 74.9 | > 100 | > 100 | > 100 | > 100 | 49.7 | 63.9 |
| CCN(CC)Cc1sc2nc3ccccc3n2c1-c1ccc(OC)cc1 | 67.6 | > 100 | > 100 | > 100 | 22.7 | > 100 | > 100 | 7.02 | 71.4 | > 100 | > 100 |
| Cc1cc(O)c(C(C)C)cc1C1(c2cc(C(C)C)c(O)cc2C)OC(=O)c2ccccc21 | 3.1 | 4.41 | 7.78 | 8.89 | 3.25 | 3.33 | 3.15 | 3.11 | 6.3 | 4.95 | 3.69 |
| CC(C)(C)c1cc(C2COC(c3cc(C(C)(C)C)c(O)c(C(C)(C)C)c3)CO2)cc(C(C)(C)C)c1O (stereo not given) | > 100 | > 100 | > 100 | > 100 | > 100 | > 100 | > 100 | > 100 | > 100 | > 100 | > 100 |
| CCC(c1c[nH]c2ccc(Br)cc12)c1c[nH]c2ccc(Br)cc12 | 13.7 | 10.8 | 8.3 | 19 | 6.57 | 4.22 | 14.2 | 16 | 44 | 17.1 | 18.8 |
| c1ccc(CSCCc2ccncc2)cc1 | > 100 | > 100 | > 100 | > 100 | > 100 | > 100 | > 100 | > 100 | > 100 | > 100 | > 100 |
| CC(=O)OCC1OC(n2c(=O)[nH]c(=O)c3sccc32)C(Br)C1OC(C)=O (stereo not given) | > 100 | > 100 | > 100 | > 100 | > 100 | > 100 | > 100 | > 100 | > 100 | > 100 | > 100 |
| CC(C)[C@@H]1ON1C(C)c1ccccc1 (stereo not given in full) | > 100 | > 100 | > 100 | > 100 | > 100 | > 100 | > 100 | > 100 | > 100 | > 100 | > 100 |
| CSCCC(NC(=O)Cc1ccc(C(=O)c2ccccc2)cc1)C(=O)O (stereo not given) | > 100 | > 100 | > 100 | > 100 | > 100 | > 100 | > 100 | > 100 | > 100 | > 100 | > 100 |
| O[C@H]1[C@H](O)[C@@H](O)[C@@]2(O)C[C@@H](O)[C@@H]1N2 | > 100 | > 100 | > 100 | > 100 | > 100 | > 100 | > 100 | > 100 | > 100 | > 100 | > 100 |

Reference: PubChem BioAssay (NCI)
